Legend:
Assay type in all cases: in vivo
[1] = test system: ryegrass, Italian (Italian ryegrass, Lolium multiflorum); experiment: Test A preemergence; conditions: Lolium multiflorum, pre-emergence, 240 h, 0 to 100 scale where 0 is no effect and 100 is complete control, read-out: Ryegrass, Italian plant response rating
Method in brief: (§1)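 Visual injury scores from 0, no effect, to 100, complete control, were assigned versus untreated controls roughly 10 d after treatment in the greenhouse. Test chemicals, formulated with surfactant in a non-phytotoxic solvent, were applied to planted seeds as a preemergence soil spray or postemergence to one- to two-leaf plants 2 to 10 cm tall, in loam–sand soil.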

[2] = test system: ragweed (common ragweed, Ambrosia elatior); experiment: Test A preemergence; conditions: Ambrosia artemisiifolia, pre-emergence, 240 h, 0 to 100 scale where 0 is no effect and 100 is complete control, read-out: Ragweed plant response rating
Method in brief: as §1

[3] = test system: pigweed (Amaranthus retroflexus); experiment: Test A preemergence; conditions: Amaranthus retroflexus, pre-emergence, 240 h, 0 to 100 scale where 0 is no effect and 100 is complete control, read-out: Pigweed plant response rating
Kochia (Kochia scoparia) [4] = experiment: Test A preemergence; conditions: Bassia scoparia, pre-emergence, 240 h, 0 to 100 scale where 0 is no effect and 100 is complete control, read-out: Kochia plant response rating
Method in brief: as §1

[5] = test system: barnyardgrass (Echinochloa crus-galli); experiment: Test A preemergence; conditions: Echinochloa crus-galli, pre-emergence, 240 h, 0 to 100 scale where 0 is no effect and 100 is complete control, read-out: Barnyardgrass plant response rating
Method in brief: as §1

[6] = test system: giant foxtail (Setaria faberii); experiment: Test A preemergence; conditions: Setaria faberi, pre-emergence, 240 h, 0 to 100 scale where 0 is no effect and 100 is complete control, read-out: Foxtail, Giant plant response rating
Method in brief: as §1

[7] = test system: ryegrass, Italian (Italian ryegrass, Lolium multiflorum); experiment: Test A postemergence; conditions: Lolium multiflorum, post-emergence, 240 h
Method in brief: as §1

[8] = test system: ragweed (common ragweed, Ambrosia elatior); experiment: Test A postemergence; conditions: Ambrosia artemisiifolia, post-emergence, 240 h
Method in brief: as §1

[9] = test system: Galium (catchweed bedstraw, Galium aparine); experiment: Test A postemergence; conditions: Galium, post-emergence, 240 h
Method in brief: as §1

[10] = test system: pigweed (Amaranthus retroflexus); experiment: Test A postemergence; conditions: Amaranthus retroflexus, post-emergence, 240 h
Method in brief: as §1

Kochia (Kochia scoparia) [11] = experiment: Test A postemergence; conditions: Bassia scoparia, post-emergence, 240 h
Method in brief: as §1

[12] = test system: barnyardgrass (Echinochloa crus-galli); experiment: Test A postemergence; conditions: Echinochloa crus-galli, post-emergence, 240 h
Method in brief: as §1

[13] = test system: wheat (Triticum aestivum); experiment: Test A postemergence; conditions: Triticum aestivum, post-emergence, 240 h
Method in brief: as §1

[14] = test system: giant foxtail (Setaria faberii); experiment: Test A postemergence; conditions: Setaria faberi, post-emergence, 240 h
Method in brief: as §1

[15] = test system: blackgrass (Alopecurus myosuroides); experiment: Test A postemergence; conditions: Alopecurus myosuroides, post-emergence, 240 h
Method in brief: as §1

corn (Zea mays) = experiment: Test A postemergence; conditions: Zea mays, post-emergence, 240 h
Method in brief: as §1

[16] = test system: barnyardgrass (Echinochloa crus-galli); experiment: Test B flooded paddy test; conditions: Echinochloa crus-galli, 250 g ai/ha, Flood; 0 to 100 scale where 0 is no effect and 100 is complete control; read-out: Barnyardgrass plant response rating
Method in brief: (§2)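 Rating scale 0–100 (visual, vs untreated controls) after a 13–15 d greenhouse period; application to the flood layer, 3 cm above soil and maintained; plants at 2-leaf stage when treated.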

[17] = test system: ducksalad (Heteranthera limosa); experiment: Test B flooded paddy test; conditions: Heteranthera limosa, 250 g ai/ha, Flood; 0 to 100 scale where 0 is no effect and 100 is complete control; read-out: Ducksalad plant response rating
Method in brief: as §2

[18] = test system: sedge, umbrella (small-flower umbrella sedge, Cyperus difformis); experiment: Test B flooded paddy test; conditions: Cyperus difformis, 250 g ai/ha, Flood; 0 to 100 scale where 0 is no effect and 100 is complete control; read-out: Sedge, Umbrella plant response rating
Method in brief: as §2

rice (Oryra sativa) = experiment: Test B flooded paddy test; conditions: Oryza sativa, 250 g ai/ha, Flood; 0 to 100 scale where 0 is no effect and 100 is complete control; read-out: Rice plant response rating
Method in brief: as §2

[19] = 125 g ai/ha, preemergence, approx. 10 d

CON1CC[C@H](c2ccc(C(F)(F)F)cc2)[C@@H](C(=O)Nc2ccc(F)c(F)c2F)C1=O [Compound 1107]
80%: pest or weed control at 250 g/ha [17]
0%: pest or weed control at 31 g/ha ([1]; 31 g ai/ha, Preemergence) | pest or weed control at 125 g/ha [1, 19] | pest or weed control at 31 g/ha ([2]; 31 g ai/ha, Preemergence) | pest or weed control at 125 g/ha [2, 19] | pest or weed control at 31 g/ha ([3]; 31 g ai/ha, Preemergence) | pest or weed control at 125 g/ha [3, 19] | pest or weed control at 31 g/ha (Kochia (Kochia scoparia) [4]; 31 g ai/ha, Preemergence) | pest or weed control at 125 g/ha (Kochia (Kochia scoparia) [4]; [19]) | pest or weed control at 31 g/ha ([5]; 31 g ai/ha, Preemergence) | pest or weed control at 125 g/ha [5, 19] | pest or weed control at 31 g/ha ([6]; 31 g ai/ha, Preemergence) | pest or weed control at 125 g/ha [6, 19] | pest or weed control at 125 g/ha ([7]; 125 g ai/ha, postemergence, visual injury on 0 to 100 scale (0 no effect, 100 complete control), approx. 10 d, read-out: Ryegrass, Italian plant response rating) | pest or weed control at 31 g/ha ([7]; Postemergence, 31 g ai/ha, visual injury after approx. 10 d, 0 to 100 scale, 0 no effect, 100 complete control, read-out: Plant response rating, Ryegrass, Italian) | pest or weed control at 125 g/ha ([8]; 125 g ai/ha, postemergence, visual injury on 0 to 100 scale (0 no effect, 100 complete control), approx. 10 d, read-out: Ragweed plant response rating) | pest or weed control at 31 g/ha ([8]; Postemergence, 31 g ai/ha, visual injury after approx. 10 d, 0 to 100 scale, 0 no effect, 100 complete control, read-out: Plant response rating, Ragweed) | pest or weed control at 125 g/ha ([9]; 125 g ai/ha, postemergence, visual injury on 0 to 100 scale (0 no effect, 100 complete control), approx. 10 d, read-out: Galium plant response rating) | pest or weed control at 31 g/ha ([9]; Postemergence, 31 g ai/ha, visual injury after approx. 10 d, 0 to 100 scale, 0 no effect, 100 complete control, read-out: Plant response rating, Galium) | pest or weed control at 125 g/ha ([10]; 125 g ai/ha, postemergence, visual injury on 0 to 100 scale (0 no effect, 100 complete control), approx. 10 d, read-out: Pigweed plant response rating) | pest or weed control at 31 g/ha ([10]; Postemergence, 31 g ai/ha, visual injury after approx. 10 d, 0 to 100 scale, 0 no effect, 100 complete control, read-out: Plant response rating, Pigweed) | pest or weed control at 125 g/ha (Kochia (Kochia scoparia) [11]; 125 g ai/ha, postemergence, visual injury on 0 to 100 scale (0 no effect, 100 complete control), approx. 10 d, read-out: Kochia plant response rating) | pest or weed control at 31 g/ha (Kochia (Kochia scoparia) [11]; Postemergence, 31 g ai/ha, visual injury after approx. 10 d, 0 to 100 scale, 0 no effect, 100 complete control, read-out: Plant response rating, Kochia) | pest or weed control at 125 g/ha ([12]; 125 g ai/ha, postemergence, visual injury on 0 to 100 scale (0 no effect, 100 complete control), approx. 10 d, read-out: Barnyardgrass plant response rating) | pest or weed control at 31 g/ha ([12]; Postemergence, 31 g ai/ha, visual injury after approx. 10 d, 0 to 100 scale, 0 no effect, 100 complete control, read-out: Plant response rating, Barnyardgrass) | plant injury at 125 g/ha ([13]; 125 g ai/ha, postemergence, visual injury on 0 to 100 scale (0 no effect, 100 complete control), approx. 10 d, read-out: Wheat plant response rating) | plant injury at 31 g/ha ([13]; Postemergence, 31 g ai/ha, visual injury after approx. 10 d, 0 to 100 scale, 0 no effect, 100 complete control, read-out: Plant response rating, Wheat) | pest or weed control at 125 g/ha ([14]; 125 g ai/ha, postemergence, visual injury on 0 to 100 scale (0 no effect, 100 complete control), approx. 10 d, read-out: Foxtail, Giant plant response rating) | pest or weed control at 31 g/ha ([14]; Postemergence, 31 g ai/ha, visual injury after approx. 10 d, 0 to 100 scale, 0 no effect, 100 complete control, read-out: Plant response rating, Foxtail, Giant) | pest or weed control at 125 g/ha ([15]; 125 g ai/ha, postemergence, visual injury on 0 to 100 scale (0 no effect, 100 complete control), approx. 10 d, read-out: Blackgrass plant response rating) | pest or weed control at 31 g/ha ([15]; Postemergence, 31 g ai/ha, visual injury after approx. 10 d, 0 to 100 scale, 0 no effect, 100 complete control, read-out: Plant response rating, Blackgrass) | plant injury at 125 g/ha (corn (Zea mays); 125 g ai/ha, postemergence, visual injury on 0 to 100 scale (0 no effect, 100 complete control), approx. 10 d, read-out: Corn plant response rating) | Corn plant response rating (crop injury, 0 = no effect, 100 = complete kill) at 31 g/ha (corn (Zea mays); Postemergence, 31 g ai/ha, visual injury after approx. 10 d, 0 to 100 scale, 0 no effect, 100 complete control) | pest or weed control at 250 g/ha [16] | pest or weed control at 250 g/ha [18] | pest or weed control at 250 g/ha (rice (Oryra sativa))

From patent publication US12077503B2, “Substituted cyclic amides and their use as herbicides” (FMC CORPORATION, priority 2015, dated 2024)
